Entries after “also recorded” stand apart in the source; their conditions may differ.
Tests used:
[1] = tested on: STAT3 DNA-binding activity; test: Electrophoretic mobility shift assay (EMSA) of nuclear extracts; assay type: cell-based; settings: nuclear extracts from v-Src/NIH 3T3 and A549 cells
Experimental: Nuclear Extract Preparation and Gel Shift Assay. Nuclear extract preparation and electrophoretic mobility shift assay were carried out as previously described (Turkson, J. et al. Mol. Cell Biol., 1999, 19:7519-7528). The ^32P-radiolabeled oligonucleotide probe is hSIE (high affinity sis-inducible element, m67 variant, 5′-[…]-3′) (SEQ ID NO. 1) that binds STAT1 and STAT3.

[2] = tested on: JAK2; test: Western blotting for JAK2 protein levels; assay type: cell-based, human; settings: A549 and MDA-MB-468 cells
Experimental: (§1) Western Blotting. Treated cell samples were lysed in 30 mM Hepes, pH 7.5, 10 mM NaCl, 5 mM MgCl2, 25 mM NaF, 1 mM EGTA, 1% Triton-X-100, 10% glycerol, 2 mM sodium orthovanadate, 10 μg/ml aprotinin, 10 μg/ml soybean trypsin inhibitor, 25 μg/ml leupeptin, 2 mM PMSF, and 6.4 mg/ml p-nitrophenylphosphate. Phospho-STAT3, phospho-AKT, phospho-MEK, and phospho-p42/p44 MAPK antibodies were obtained from Cell Signaling Technologies, Cambridge, Mass. Antibodies to STAT3, JAK2, and phospho-INK were purchased from Santa Cruz Biotechnology, Santa Cruz, Calif. Phospho-JAK2 antibody came from Upstate Biotechnology, Lake Placid, N.Y. Membranes were blocked in either 5% milk in PBS, pH 7.4, containing 0.1% Tween-20 (PBS-T) or 1% BSA in TBS, pH 7.5, containing 0.1% Tween-20 (TBS-T). Phospho-specific antibodies (excepting P-MAPK and P-JNK) were incubated in 1% BSA in TBS-T while all other antibodies were diluted in 5% milk in PBS-T for either 2 hr at room temperature or overnight at 4° C. HRP-conjugated secondary antibodies (Jackson ImmunoResearch) were diluted in 5% milk in either PBS-T or TBS-T at 1:1000 dilution for one hour at room temperature. Western blots were visualized using enhanced chemiluminescence as described previously (Blaskovich, M. A. et al. Nat. Biotechnol., 2000, 18:1065-1070).

[3] = tested on: phospho-JNK; test: Western blotting for phospho-JNK; assay type: cell-based, human; settings: A549 and MDA-MB-468 cells, up to 10 μM
Experimental: as §1

[4] = personal communication; cited from earlier work
[5] = tested on: JAK1; test: JAK kinase autophosphorylation assay on immunoprecipitates (JAK1); assay type: biochemical; settings: immunoprecipitates from MDA-MB-468 or v-Src/NIH 3T3 cells; AG490 100 μM, PD180970 2 μM
Experimental: JAK Kinase Assays. A549, MDA-MB-468, and v-Src transformed NIH 3T3 cells were harvested, washed three times in PBS-V (10 mM sodium phosphate, pH 7.4, 137 mM NaCl, 1 mM sodium orthovanadate) then lysed for 30 min on ice in JAK kinase lysis buffer (25 mM Hepes, pH 7.4, 0.1% Triton-X-100, 0.5 mM DTT, 1 mM sodium orthovanadate, 1 mM PMSF, 10 μg/ml aprotinin, 10 μg/ml leupeptin). Samples were spun at high speed to clear, and 800-1000 μg of protein was immunoprecipitated per treatment condition with 50 ng of either JAK1 or JAK2 antibody (Santa Cruz Biotechnology) rocking overnight at 4° C. 25 μl of protein A/G PLUS agarose then was added and rocking continued for 1 hr at 4° C. Samples were spun to collect agarose pellet, and pellet washed twice in wash buffer (50 mM Hepes, pH 7.4, 0.1% Triton-X-100, 0.5 mM DTT, 150 mM NaCl) and once in phosphorylation buffer (50 mM Hepes, pH 7.4, 0.1% Triton-X-100, 0.5 mM DTI, 6.25 mM manganese chloride, 100 mM NaCl). Kinase reactions were performed at 30° C. for 15 min in a final volume of 100 μl of phosphorylation buffer. Samples were pretreated with DMSO control, JSI-124, and control compounds (AG490, 100 μM, and […], 2 μM) before addition of 20 μCi/sample y-[^32P]ATP. Reaction was halted using stop buffer (wash buffer plus 10 mM EDTA), samples spun to collect pellet, then pellet washed once with stop buffer and twice with wash buffer. Samples were then placed in 2×SDS-PAGE sample buffer, boiled at 100° C., and run on 8% SDS-PAGE gels to separate proteins. Autophosphorylation results were visualized by autoradiography.

[6] = tested on: MDA-MB-468 tumors; test: Antitumor activity, MDA-MB-468 xenograft in nude mice; assay type: in vivo; settings: 1 mg/kg/day i.p.
Description: Antitumor Activity in the Nude Mouse Tumor Xenograft Model. Nude mice and C57 BL-6 black mice (National Cancer Institute, Bethesda, Md.) were maintained in accordance with the Institutional Animal Care and Use Committee (IACUC) procedures and guidelines. v-Src- and oncogenic H-Ras-transformed NIH 3T3, A549, MDA-MB-468 and Calu-1 cells were harvested, resuspended in PBS and injected s.c. into the right and left flank (10×10^6 cells per flank) of 8 week old female nude mice as reported previously (Sun, J. et al. Cancer Res., 1999, 59:4919-4926). Similarly, murine B16-F10 Melanoma cells were injected s.c. into the right and left flank (10^6 cells per flank) of C57 black mice. When tumors reached about 150 mm^3, animals were randomized (five animals per group; two tumors per animal) and dosed i.p. with 0.2 ml once daily. Control animals received DMSO (20%) vehicle whereas treated animals were injected with JSI-124 (1 mg/kg/day) in 20% DMSO in water. The tumor volumes were determined by measuring the length (l) and the width (w) and calculating the volume (V=1w^2/2) as described previously (Sun, J. et al. Cancer Res., 1999, 59:4919-4926). Statistical significance between control and treated animals were evaluated by using Student's t-test. […] Percent surviving mice was determined by monitoring the death of mice until all mice died. […]

[7] = tested on: phospho-Erk1/2; test: Western blotting for phospho-Erk1/2; assay type: cell-based, human; settings: A549 and MDA-MB-468 cells, up to 10 μM
Experimental: as §1

Compound: CC(C)(O)/C=C/C(=O)[C@](C)(O)[C@H]1[C@H](O)C[C@@]2(C)[C@@H]3CC=C4[C@@H](C=C(O)C(=O)C4(C)C)[C@]3(C)C(=O)C[C@]12C [JSI-124, cucurbitacin I]
- STAT3 DNA-binding activity (EMSA) [1]: greatly reduced
- JAK2 protein levels [2]: no effect on the protein levels of STAT3 and JAK2
- phospho-JNK levels [3]: no inhibitory effect
- edema at the subcutaneous site of injection (NCI Developmental Therapeutics Program) [4]: edema was observed at the subcutaneous site of injection
- JAK1 kinase activity (autophosphorylation) in vitro [5]: not affected
- inhibition of MDA-MB-468 tumor growth [6]: 86%
- phospho-Erk1/2 levels [7]: no inhibitory effect; also recorded: increased the levels of phosphorylation

From patent publication US8691799B2, “Materials and methods for treatment of cancer and identification of anti-cancer compounds” (priority 2001, dated 2014)
